Experimental data taken from patent US10844038B2, “1,2-dithiolane compounds useful in neuroprotection, autoimmune and cancer diseases and conditions” (SABILA BIOSCIENCES LLC, priority 2016, dated 2020).

Columns and labels:
[1] = biological target: HCK (Homo sapiens (Human), UniProt P08631); assay: Rabbit reticulocyte lysate assay (KinaseSeeker competition binding); settings: read-out: IC50 Activity Levels Against SRC Family Kinases: HCK
[2] = biological target: T1, CSK (Homo sapiens (Human), UniProt P41240); assay: as above; settings: at 1 μM
[3] = biological target: SRC (Homo sapiens (Human), UniProt P12931); assay: as above; settings: read-out: IC50 Activity Levels Against SRC Family Kinases: SRC
[4] = biological target: LYN (Homo sapiens (Human), UniProt P07948); assay: as above; settings: at 1 μM
[5] = biological target: LCK (Homo sapiens (Human), UniProt P06239); assay: as above; settings: read-out: IC50 Activity Levels Against SRC Family Kinases: LCK
[6] = biological target: BLK (Homo sapiens (Human), UniProt P51451); assay: as above; settings: read-out: IC50 Activity Levels Against SRC Family Kinases: BLK
[7] = biological target: FYN (Homo sapiens (Human), UniProt P06241); assay: as above; settings: at 1 μM
[8] = biological target: T1, CSK; assay: Radioisotope filter binding assay; assay type: biochemical; settings: read-out: IC50 Activity Levels Against SRC Family Kinases: CSK
Procedure, shortened: (§1)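 Readout is 33P-labelled product captured on P81 ion-exchange filter after washing off unreacted phosphate. Reactions contained kinase, substrate, cofactors and test compound in pH 7.5 Hepes/MgCl2 buffer with 1% DMSO, run 2 h at room temperature after 20 min compound preincubation.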

[9] = biological target: ITK (Homo sapiens (Human), UniProt Q08881); assay: Radioisotope filter binding assay; assay type: biochemical; settings: read-out: IC50 Activity Levels Against Representative TEC Family Kinases: ITK
Procedure, shortened: as §1

[10] = biological target: AurA (Homo sapiens (Human), UniProt O14965); assay: Radioisotope filter binding assay; assay type: biochemical; settings: read-out: IC50 Activity Levels Against RTKs (c-Kit, RET, HER4) and AurA, CHK2 Kinases: AurA
Procedure, shortened: as §1

Sequence of ITK (Q08881 whole entry): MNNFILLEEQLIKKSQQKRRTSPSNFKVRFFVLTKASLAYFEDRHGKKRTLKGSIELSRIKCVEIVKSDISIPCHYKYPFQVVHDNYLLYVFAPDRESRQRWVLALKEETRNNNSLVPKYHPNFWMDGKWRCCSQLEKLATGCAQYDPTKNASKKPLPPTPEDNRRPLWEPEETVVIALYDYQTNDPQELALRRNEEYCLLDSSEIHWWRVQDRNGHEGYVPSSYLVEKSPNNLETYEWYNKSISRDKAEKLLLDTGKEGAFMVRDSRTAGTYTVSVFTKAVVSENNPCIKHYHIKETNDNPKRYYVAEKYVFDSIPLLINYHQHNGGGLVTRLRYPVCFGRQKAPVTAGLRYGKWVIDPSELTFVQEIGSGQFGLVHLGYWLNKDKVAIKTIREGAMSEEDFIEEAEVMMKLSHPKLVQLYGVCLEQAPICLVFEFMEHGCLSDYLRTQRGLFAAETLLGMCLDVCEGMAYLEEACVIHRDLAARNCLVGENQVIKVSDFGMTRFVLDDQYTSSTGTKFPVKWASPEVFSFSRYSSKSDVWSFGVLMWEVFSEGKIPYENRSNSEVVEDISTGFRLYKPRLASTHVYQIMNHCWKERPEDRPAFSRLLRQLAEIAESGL
Sequence of SRC (P12931 whole entry, looked up): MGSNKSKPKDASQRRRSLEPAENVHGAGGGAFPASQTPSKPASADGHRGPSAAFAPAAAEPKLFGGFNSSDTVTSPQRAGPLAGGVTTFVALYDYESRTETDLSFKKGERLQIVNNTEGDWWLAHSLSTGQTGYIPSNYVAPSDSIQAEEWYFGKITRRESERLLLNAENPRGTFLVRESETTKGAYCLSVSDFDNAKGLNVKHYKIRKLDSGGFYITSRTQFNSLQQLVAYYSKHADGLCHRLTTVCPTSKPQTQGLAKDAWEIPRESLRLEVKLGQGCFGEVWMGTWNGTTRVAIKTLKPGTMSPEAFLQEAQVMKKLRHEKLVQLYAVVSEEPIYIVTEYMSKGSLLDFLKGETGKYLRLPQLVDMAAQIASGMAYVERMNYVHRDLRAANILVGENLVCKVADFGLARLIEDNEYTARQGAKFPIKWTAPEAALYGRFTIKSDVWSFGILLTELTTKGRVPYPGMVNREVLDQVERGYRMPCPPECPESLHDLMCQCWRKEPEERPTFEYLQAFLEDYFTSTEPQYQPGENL
Sequence of FYN (P06241 whole entry): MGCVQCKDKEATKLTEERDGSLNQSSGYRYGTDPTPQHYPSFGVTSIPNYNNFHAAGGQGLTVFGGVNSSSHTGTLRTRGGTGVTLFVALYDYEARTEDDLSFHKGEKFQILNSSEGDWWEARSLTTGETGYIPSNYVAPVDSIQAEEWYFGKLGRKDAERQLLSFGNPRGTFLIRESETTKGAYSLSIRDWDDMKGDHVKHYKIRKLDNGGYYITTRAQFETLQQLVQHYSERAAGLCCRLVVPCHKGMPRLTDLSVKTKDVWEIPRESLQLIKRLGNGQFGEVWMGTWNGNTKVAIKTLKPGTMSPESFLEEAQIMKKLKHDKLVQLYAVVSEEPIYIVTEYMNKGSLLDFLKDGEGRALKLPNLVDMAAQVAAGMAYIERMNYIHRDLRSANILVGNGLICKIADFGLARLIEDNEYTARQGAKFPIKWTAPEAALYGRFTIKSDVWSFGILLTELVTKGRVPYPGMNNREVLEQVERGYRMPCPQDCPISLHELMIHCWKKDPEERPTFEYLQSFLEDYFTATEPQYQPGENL
Sequence of BLK (P51451 whole entry): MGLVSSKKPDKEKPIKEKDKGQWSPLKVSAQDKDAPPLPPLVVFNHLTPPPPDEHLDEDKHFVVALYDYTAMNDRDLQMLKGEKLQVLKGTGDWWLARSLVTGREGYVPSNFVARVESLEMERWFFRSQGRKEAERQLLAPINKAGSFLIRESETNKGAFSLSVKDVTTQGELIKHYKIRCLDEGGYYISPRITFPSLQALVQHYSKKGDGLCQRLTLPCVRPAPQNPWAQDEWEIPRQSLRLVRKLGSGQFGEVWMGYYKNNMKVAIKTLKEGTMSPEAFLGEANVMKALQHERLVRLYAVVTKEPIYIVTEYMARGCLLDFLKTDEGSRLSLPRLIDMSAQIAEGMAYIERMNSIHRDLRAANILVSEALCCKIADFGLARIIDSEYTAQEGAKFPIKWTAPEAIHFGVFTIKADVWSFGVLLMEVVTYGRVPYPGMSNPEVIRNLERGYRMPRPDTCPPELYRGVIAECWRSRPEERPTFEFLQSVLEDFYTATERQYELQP
Sequence of HCK (P08631 whole entry): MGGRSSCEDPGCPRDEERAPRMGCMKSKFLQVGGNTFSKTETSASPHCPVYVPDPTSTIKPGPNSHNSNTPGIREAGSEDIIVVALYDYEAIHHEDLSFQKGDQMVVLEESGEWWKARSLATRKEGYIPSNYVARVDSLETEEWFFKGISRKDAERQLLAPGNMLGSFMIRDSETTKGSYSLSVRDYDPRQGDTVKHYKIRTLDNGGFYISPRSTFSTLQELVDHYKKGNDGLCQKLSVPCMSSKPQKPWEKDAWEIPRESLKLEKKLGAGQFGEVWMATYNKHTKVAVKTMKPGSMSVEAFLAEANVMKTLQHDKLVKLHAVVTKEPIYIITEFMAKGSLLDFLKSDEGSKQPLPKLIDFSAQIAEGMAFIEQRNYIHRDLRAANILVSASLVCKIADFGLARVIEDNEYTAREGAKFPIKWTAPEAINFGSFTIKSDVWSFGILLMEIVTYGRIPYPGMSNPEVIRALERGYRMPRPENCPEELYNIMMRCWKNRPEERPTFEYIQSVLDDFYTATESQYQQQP
Sequence of LCK (P06239 whole entry): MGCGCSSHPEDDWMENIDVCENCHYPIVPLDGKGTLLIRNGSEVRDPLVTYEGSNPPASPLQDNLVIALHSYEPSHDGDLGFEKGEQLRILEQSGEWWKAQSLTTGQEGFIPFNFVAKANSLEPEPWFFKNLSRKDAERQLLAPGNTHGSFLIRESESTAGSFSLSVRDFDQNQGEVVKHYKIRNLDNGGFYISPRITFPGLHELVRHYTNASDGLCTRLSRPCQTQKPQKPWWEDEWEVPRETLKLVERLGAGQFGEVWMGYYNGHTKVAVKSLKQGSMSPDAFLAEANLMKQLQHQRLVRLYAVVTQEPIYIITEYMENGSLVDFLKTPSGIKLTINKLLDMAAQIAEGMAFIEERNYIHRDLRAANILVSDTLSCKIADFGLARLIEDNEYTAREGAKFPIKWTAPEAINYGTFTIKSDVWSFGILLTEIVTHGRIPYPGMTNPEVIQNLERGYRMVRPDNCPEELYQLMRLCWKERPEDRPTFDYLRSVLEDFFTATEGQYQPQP
Sequence of AurA (O14965 whole entry): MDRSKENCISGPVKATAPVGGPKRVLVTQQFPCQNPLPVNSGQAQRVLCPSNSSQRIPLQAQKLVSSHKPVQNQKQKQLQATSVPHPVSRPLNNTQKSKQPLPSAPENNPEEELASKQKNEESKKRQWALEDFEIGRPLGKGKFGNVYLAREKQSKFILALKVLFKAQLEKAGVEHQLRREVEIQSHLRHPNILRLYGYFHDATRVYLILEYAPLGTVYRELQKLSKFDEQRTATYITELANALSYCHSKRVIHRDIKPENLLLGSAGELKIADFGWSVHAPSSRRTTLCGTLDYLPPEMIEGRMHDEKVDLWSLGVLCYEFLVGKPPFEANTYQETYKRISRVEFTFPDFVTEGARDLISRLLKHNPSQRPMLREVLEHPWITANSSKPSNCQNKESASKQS
Sequence of LYN (P07948 whole entry): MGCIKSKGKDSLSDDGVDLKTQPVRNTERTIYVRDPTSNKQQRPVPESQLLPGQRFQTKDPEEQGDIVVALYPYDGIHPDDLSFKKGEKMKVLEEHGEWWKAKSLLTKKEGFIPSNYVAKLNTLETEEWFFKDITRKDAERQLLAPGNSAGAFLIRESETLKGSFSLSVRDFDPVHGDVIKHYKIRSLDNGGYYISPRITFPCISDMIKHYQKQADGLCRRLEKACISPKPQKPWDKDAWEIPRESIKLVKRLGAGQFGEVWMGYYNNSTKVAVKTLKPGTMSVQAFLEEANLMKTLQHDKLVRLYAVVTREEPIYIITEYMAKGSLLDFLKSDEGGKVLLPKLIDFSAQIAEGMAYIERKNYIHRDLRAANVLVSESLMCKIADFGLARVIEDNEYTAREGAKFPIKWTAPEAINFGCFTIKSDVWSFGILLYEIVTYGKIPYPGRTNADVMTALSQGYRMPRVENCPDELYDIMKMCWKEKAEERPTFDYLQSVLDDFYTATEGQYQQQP

IC50 [1] [nM] | % Inhibition Against SRC Family Kinases: CSK [2] [%] | IC50 [3] [nM] | % Inhibition Against SRC Family Kinases: LYN [4] [%] | IC50 [5] [nM] | IC50 [6] [nM] | % Inhibition Against SRC Family Kinases: FYN [7] [%] | IC50 [8] [nM] | IC50 [9] [nM] | IC50 [10] [nM] | SMILES
100 to 999 | 70 | 100 to 999 | 57 | 100 to 999 | 100 to 999 | 77 | 5 to 99 | 1000 to 10000 | – | Nc1ncnc2c1c(-c1ccc(Oc3ccccc3)cc1)nn2C[C@H]1SSC[C@@H]1O [43 B.]
– | – | – | – | – | – | – | – | – | 100 to 999 | Nc1ncnc2c1c(-c1ccc(Oc3ccccc3)cc1)nn2C[C@H]1SSC[C@H]1O [46 B.]
